From patent publication US10435402B2, “Bicyclic compounds, compositions and medicinal applications thereof” (Advinus Therapeutics Limited, priority 2015, dated 2019)

The molecules below were run against T1, GAL4-DBD/RORγ-LBD (Homo sapiens, UniProt P51449) (assay: RORγt transactivation reporter assay (GAL4-DBD/RORγ-LBD, luciferase read out)). Conditions: HEK293T cells, GAL4-UAS luciferase reporter, overnight (18-24 hours) incubation.
T1 construct: expressed in transfected cells; host or cells: HEK293T
T1 sequence (P51449 269-508 limits assumed): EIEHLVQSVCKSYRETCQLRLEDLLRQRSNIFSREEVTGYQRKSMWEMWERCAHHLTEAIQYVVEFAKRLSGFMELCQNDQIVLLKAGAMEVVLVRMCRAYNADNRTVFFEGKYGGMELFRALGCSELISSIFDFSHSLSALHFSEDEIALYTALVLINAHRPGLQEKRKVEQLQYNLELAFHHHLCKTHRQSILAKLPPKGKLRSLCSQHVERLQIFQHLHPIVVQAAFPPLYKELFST
T1 sequence (P04386 1-147 partner limits assumed): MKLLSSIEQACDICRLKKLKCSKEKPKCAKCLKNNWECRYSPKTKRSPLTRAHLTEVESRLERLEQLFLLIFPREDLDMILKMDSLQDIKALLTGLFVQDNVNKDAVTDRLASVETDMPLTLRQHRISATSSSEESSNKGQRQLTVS
Format: cell-based
Description: RORγt Transactivation Reporter Assay Protocol: The inhibition of RORγt activity in cells was evaluated using a GAL4-UAS reporter system in HEK293T cells employing a luciferase read out. RORγt ligand binding domain (LBD) was cloned into the pFN26A (BIND) vector (Promega #[…]) containing yeast GAL4-DBD to form a RORγt LBD-GAL4 DBD fusion construct. This vector also contained a Renilla Luciferase reporter expressed under a SV40 promoter which was used as a control for transfection efficiency. A transcriptional reporter expression construct pGL4.35 (Promega #[…]) was used to monitor RORγt LBD-GAL4 activity. This construct contained nine repeats of GAL4 binding site/upstream activating sequence (UAS) controlling expression of a firefly luciferase reporter Luc2P. When transfected together in cells, the RORγ-LBD-DBD fusion protein drives expression of the luciferase reporter. For the assay, HEK293T cells were plated in a flat bottom 96 well plate at a density of 25,000 cells/well/100 ul of DMEM high glucose medium (Sigma D5648) containing 10% FBS and antibiotic. Cells were incubated overnight at 37 C/5% CO2. The next day, medium from the wells was removed and replaced with 30 ul of OptiMEM® (Invitrogen #31985070). 100 ng each of pBIND RORγ LBD-DBD and pGL4.35 reporter plasmids was transfected in HEK293T cells using Lipofectamine 2000 (Invitrogen #11668-019) where 10 ul of transfection complex was added to the each well. Control transfections were performed with an empty pF[…] vector and pGL4.35 vector. The transfected cells were incubated for 5 hours at 37 C/5% CO2. After incubation, 40 ul of DMEM high glucose medium without FBS, with antibiotic was added to each well. A 10 mM stock solution of test compound prepared in 100% DMSO was first diluted in DMSO and then in DMEM medium without FBS to give the required final compound concentration. Concentration of DMSO in the test compound solution was 0.4%. 20 ul of diluted compound solution was added to each well. Cells were incubated overnight (18-24 hours) at 37 C/5% CO2. The next day, luciferase assay was performed using the Dual Glo® Luciferase Assay System (Promega #E2940). Briefly, medium was removed from the wells and replaced with 40 ul 1× Passive Lysis Buffer (Promega #E1941). Plate was incubated at room temperature on a plate shaker at 1000 rpm for 40 min. After incubation, plate was centrifuged at 1000 rpm for 2 min. 20 ul of the lysate was transferred from each well to that of solid white half area 96 well plate (Costar #3693). Dual Glo® Reagent was thawed to room temperature and 20 ul was added to each well containing lysate. Plate was centrifuged at 1000 rpm/2 min and incubated at room temperature on a plate shaker at 600 rpm/25 min. Firefly luciferase signal was measured on a Tecan Safire2. After measurement, 20 ul of Dual Glo® Stop Glo® Reagent was added to each well. Plate was centrifuged at 1000 rpm/2 min and incubated at room temperature on a plate shaker at 600 rpm/25 min. Renilla luciferase signal was measured on Tecan Safire 2. IC50 values for test compounds were calculated from the normalized luciferase signal data using GraphPad Prism software.
Work on `CCOC(=O)c1ccc(-c2cc(C(=O)c3c(F)cccc3Cl)n3ccccc23)cc1` [Example A-24, ethyl 4-[3-(2-chloro-6-fluoro-benzoyl)indolizin-1-yl]benzoate] yielded an IC50 of less than 500 nM. In the case of `O=C(O)c1ccc(-c2cc(C(=O)c3c(F)cccc3Cl)n3cccc(F)c23)c(F)c1` [Example A-35, 4-[3-(2-chloro-6-fluoro-benzoyl)-8-fluoro-indolizin-1-yl]-3-fluoro-benzoic acid], the IC50 is reported as less than 500 nM. `Cc1c(-c2ccc(C(=O)O)cc2F)c2ccccn2c1C(=O)c1c(Cl)cccc1Cl` [Example C-2, 4-[3-(2,6-dichlorobenzoyl)-2-methyl-indolizin-1-yl]-3-fluoro-benzoic acid] was tested, and the IC50 was less than 500 nM. For `O=C(O)c1ccc(-c2cc(C(=O)c3c(Cl)cccc3C(F)(F)F)n3c2CCCC3)cc1` [Example H-1, 4-[3-[2-chloro-6-(trifluoromethyl)benzoyl]-5,6,7,8-tetrahydroindolizin-1-yl]benzoic acid], the IC50 was less than 500 nM. `O=C(O)c1ccc(-c2cc(C(=O)c3c(Cl)cccc3C(F)(F)F)n3cccc(Cl)c23)c(F)c1` [Example A-59, 4-[8-chloro-3-[2-chloro-6-(trifluoromethyl)benzoyl]indolizin-1-yl]-3-fluoro-benzoic acid] showed an IC50 of less than 500 nM. Molecule `CN(C)C(=O)c1ccc2c(-c3ccc(C(=O)O)cc3)cc(C(=O)c3c(Cl)cccc3C(F)(F)F)n2c1` [Example D-1, 4-[3-[2-chloro-6-(trifluoromethyl)benzoyl]-6-(dimethylcarbamoyl)indolizin-1-yl]benzoic acid] has an IC50 of less than 500 nM. For `O=C(O)c1ccc(-c2cc(Cc3c(F)cccc3Cl)n3ccccc23)cc1` [Example J-1, 4-[3-[(2-chloro-6-fluoro-phenyl)methyl]indolizin-1-yl]benzoic acid], the IC50 was less than 500 nM. `Cc1c(-c2ccc(C(=O)O)cc2)c2ccccn2c1C(=O)c1c(Cl)cccc1Cl` [Example C-4, 4-[3-(2,6-dichlorobenzoyl)-2-methyl-indolizin-1-yl]benzoic acid] gave an IC50 of less than 500 nM. `O=C(O)c1ccc(-c2cc(C(=O)c3c(F)cccc3Cl)n3cccc(F)c23)cc1` [Example A-34, 4-[3-(2-chloro-6-fluoro-benzoyl)-8-fluoro-indolizin-1-yl]benzoic acid] was tested, and the IC50 was less than 500 nM. Molecule `O=C(O)c1ccc(-c2cc(C(=O)c3c(Cl)cccc3Cl)n3cccc(C(F)(F)F)c23)cc1` [Example A-61, 4-[3-(2,6-dichlorobenzoyl)-8-(trifluoromethyl)indolizin-1-yl]benzoic acid] has an IC50 of less than 500 nM. “4-[3-(2,6-difluorobenzoyl)indolizin-1-yl]benzoic acid [Example A-37]” showed an IC50 of less than 500 nM. `CCS(=O)(=O)N1CCC=C(c2cc(C(=O)c3c(Cl)ccc(F)c3Cl)n3ccccc23)C1` [Example G-2, (2,6-dichloro-3-fluoro-phenyl)-[1-(1-ethylsulfonyl-3,6-dihydro-2H-pyridin-5-yl)indolizin-3-yl]methanone] showed an IC50 greater than 5000 nM. `CCOC(=O)c1ccc(-c2c(F)c(C(=O)c3c(Cl)ccc(F)c3Cl)n3ccccc23)cc1` [Example B-5, ethyl 4-[3-(2,6-dichloro-3-fluoro-benzoyl)-2-fluoro-indolizin-1-yl]benzoate] showed an IC50 of less than 500 nM. With `CCOC(=O)c1ccc(-c2cc(C(=O)c3c(F)cccc3F)n3cccc(F)c23)c(F)c1` [Example A-46, ethyl 4-[3-(2,6-difluorobenzoyl)-8-fluoro-indolizin-1-yl]-3-fluoro-benzoate] the IC50 was less than 500 nM. For “4-[3-(2,6-dichlorobenzoyl)-6-(methylcarbamoyl)indolizin-1-yl]benzoic acid [Example D-9]”, the IC50 was less than 5000 nM. `COC(=O)c1ccc(-c2c(C)c(C(=O)c3c(Cl)cccc3C(F)(F)F)n3ccccc23)c(F)c1` [Example C-8, methyl 4-[3-[2-chloro-6-(trifluoromethyl)benzoyl]-2-methyl-indolizin-1-yl]-3-fluoro-benzoate] gave an IC50 of less than 500 nM. For `O=C(O)c1ccc(-c2cc(C(=O)c3c(Cl)cccc3Cl)n3cc(F)ccc23)cc1` [Example A-26, 4-[3-(2,6-dichlorobenzoyl)-6-fluoro-indolizin-1-yl]benzoic acid], the IC50 was less than 500 nM. `O=C(O)c1ccc(-c2cc(Oc3c(Cl)cccc3Cl)n3ccccc23)c(F)c1` [Example E-2, 4-[3-(2,6-dichlorophenoxy)indolizin-1-yl]-3-fluoro-benzoic acid] gave an IC50 of less than 5000 nM. `Cc1cccc(Cl)c1C(=O)c1cc(-c2ccc(C(=O)O)cc2F)c2ccccn12` [Example A-15, 4-[3-(2-chloro-6-methyl-benzoyl)indolizin-1-yl]-3-fluoro-benzoic acid] gave an IC50 of less than 500 nM. Molecule `O=C(O)c1ccc(-c2cc(C(=O)c3c(Cl)cccc3C(F)(F)F)n3ccccc23)cc1` [Example A-2, 4-[3-[2-chloro-6-(trifluoromethyl)benzoyl]indolizin-1-yl]benzoic acid] has an IC50 of less than 500 nM. For `O=C(O)c1ccc(-c2cc(C(=O)c3c(Cl)cccc3Cl)n3ccccc23)cc1` [Example A-8, 4-[3-(2,6-dichlorobenzoyl)indolizin-1-yl]benzoic acid], the IC50 was less than 500 nM. Work on `O=C(O)c1ccc(-c2cc(C(=O)c3c(Cl)cccc3C(F)(F)F)n3c2CCCC3)c(F)c1` [Example H-4, 4-[3-[2-chloro-6-(trifluoromethyl)benzoyl]-5,6,7,8-tetrahydroindolizin-1-yl]-3-fluoro-benzoic acid] yielded an IC50 greater than 5000 nM. For `O=C(O)c1ccc(-c2cc(C(=O)c3c(Cl)ccc(F)c3Cl)n3cccc(F)c23)c(F)c1` [Example A-49, 4-[3-(2,6-dichloro-3-fluoro-benzoyl)-8-fluoro-indolizin-1-yl]-3-fluoro-benzoic acid], the IC50 was less than 500 nM. For `O=C(O)c1ccc(-c2cc(C(=O)c3c(Cl)cccc3Cl)n3ccccc23)c(F)c1` [Example A-3, 4-[3-(2,6-dichlorobenzoyl)indolizin-1-yl]-3-fluoro-benzoic acid], the IC50 was less than 500 nM. Molecule `CCOC(=O)c1ccc(-c2cc(C(=O)c3c(F)cccc3Cl)n3cccc(F)c23)cc1` [Example A-32, ethyl 4-[3-(2-chloro-6-fluoro-benzoyl)-8-fluoro-indolizin-1-yl]benzoate] has an IC50 of less than 500 nM. With “4-[3-(2,6-dichlorophenoxy)indolizin-1-yl]benzoic acid [Example E-3]” the IC50 was greater than 5000 nM. Molecule `O=C(O)c1ccc(-c2cc(C(=O)c3c(F)cccc3Cl)n3ccccc23)c(F)c1` [Example A-27, 4-[3-(2-chloro-6-fluoro-benzoyl)indolizin-1-yl]-3-fluoro-benzoic acid] has an IC50 of less than 500 nM. “ethyl 4-[3-(2-chloro-6-fluoro-benzoyl)-8-fluoro-indolizin-1-yl]-3-fluoro-benzoate [Example A-33]” gave an IC50 of less than 500 nM. `COC(=O)c1ccc(-c2cc(C(=O)c3c(Cl)cccc3Cl)n3cccc(F)c23)c(F)c1` [Example A-22, methyl 4-[3-(2,6-dichlorobenzoyl)-8-fluoro-indolizin-1-yl]-3-fluoro-benzoate] gave an IC50 of less than 500 nM. For `CNC(=O)c1ccc(-c2nc(C(=O)c3c(Cl)ccc(F)c3Cl)n3ccccc23)cc1` [Example F-1, 4-[3-(2,6-dichloro-3-fluoro-benzoyl)imidazo[1,5-a]pyridin-1-yl]-N-methyl-benzamide], the IC50 was greater than 5000 nM. In the case of “4-[3-(2-chloro-6-fluoro-benzoyl)indolizin-1-yl]benzoic acid [Example A-28]”, the IC50 is reported as less than 500 nM. Molecule `COC(=O)c1ccc(-c2cc(Oc3c(Cl)cccc3Cl)n3ccccc23)c(F)c1` [Example E-1, methyl 4-[3-(2,6-dichlorophenoxy)indolizin-1-yl]-3-fluoro-benzoate] has an IC50 of less than 500 nM. For `Cc1c(-c2ccc(C(=O)O)cc2)c2ccccn2c1C(=O)c1c(Cl)cccc1C(F)(F)F` [Example C-7, 4-[3-[2-chloro-6-(trifluoromethyl)benzoyl]-2-methyl-indolizin-1-yl]benzoic acid], the IC50 was less than 500 nM. In the case of “4-[6-carbamoyl-3-(2,6-dichlorobenzoyl)indolizin-1-yl]benzoic acid [Example D-13]”, the IC50 is reported as less than 5000 nM. `CCOC(=O)c1ccc(-c2cc(C(=O)c3c(Cl)cccc3Cl)n3cccc(F)c23)cc1` [Example A-21, ethyl 4-[3-(2,6-dichlorobenzoyl)-8-fluoro-indolizin-1-yl]benzoate] gave an IC50 of less than 500 nM.
